# From patent US20240208992A1, “MACROCYCLES AS CFTR MODULATORS” (Idorsia Pharmaceuticals Ltd, priority 2021, published 2024)
# Molecular target: human F508del-CFTR (Homo sapiens, UniProt P13569, DEL508-508)
# Test: F508del-CFTR cell surface expression (corrector activity), DiscoveRx ß-galactosidase complementation chemiluminescence assay in recombinant U2OS cell line;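 also: U2OS cells co-expressing ProLink-tagged F508del-CFTR and a membrane-anchored enzyme acceptor, where more surface CFTR restores β-galactosidase activity measured by chemiluminescence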
# Settings: for EC50: EC50, F508del-CFTR cell surface expression, geomean values; for Emax: U2OS, arithmetic mean values
# [1] = U2OS cells, 16h compound incubation
# [2] = in relation to Emax of corrector lumacaftor (=100%)
# [3] = U2OS cell line, 16h compound incubation
# [4] = in relation to the Emax of the corrector lumacaftor (=100%), U2OS cell line, 16h compound incubation
# human F508del-CFTR, sequence (P13569 with tags, fused parts or gaps DEL508-508): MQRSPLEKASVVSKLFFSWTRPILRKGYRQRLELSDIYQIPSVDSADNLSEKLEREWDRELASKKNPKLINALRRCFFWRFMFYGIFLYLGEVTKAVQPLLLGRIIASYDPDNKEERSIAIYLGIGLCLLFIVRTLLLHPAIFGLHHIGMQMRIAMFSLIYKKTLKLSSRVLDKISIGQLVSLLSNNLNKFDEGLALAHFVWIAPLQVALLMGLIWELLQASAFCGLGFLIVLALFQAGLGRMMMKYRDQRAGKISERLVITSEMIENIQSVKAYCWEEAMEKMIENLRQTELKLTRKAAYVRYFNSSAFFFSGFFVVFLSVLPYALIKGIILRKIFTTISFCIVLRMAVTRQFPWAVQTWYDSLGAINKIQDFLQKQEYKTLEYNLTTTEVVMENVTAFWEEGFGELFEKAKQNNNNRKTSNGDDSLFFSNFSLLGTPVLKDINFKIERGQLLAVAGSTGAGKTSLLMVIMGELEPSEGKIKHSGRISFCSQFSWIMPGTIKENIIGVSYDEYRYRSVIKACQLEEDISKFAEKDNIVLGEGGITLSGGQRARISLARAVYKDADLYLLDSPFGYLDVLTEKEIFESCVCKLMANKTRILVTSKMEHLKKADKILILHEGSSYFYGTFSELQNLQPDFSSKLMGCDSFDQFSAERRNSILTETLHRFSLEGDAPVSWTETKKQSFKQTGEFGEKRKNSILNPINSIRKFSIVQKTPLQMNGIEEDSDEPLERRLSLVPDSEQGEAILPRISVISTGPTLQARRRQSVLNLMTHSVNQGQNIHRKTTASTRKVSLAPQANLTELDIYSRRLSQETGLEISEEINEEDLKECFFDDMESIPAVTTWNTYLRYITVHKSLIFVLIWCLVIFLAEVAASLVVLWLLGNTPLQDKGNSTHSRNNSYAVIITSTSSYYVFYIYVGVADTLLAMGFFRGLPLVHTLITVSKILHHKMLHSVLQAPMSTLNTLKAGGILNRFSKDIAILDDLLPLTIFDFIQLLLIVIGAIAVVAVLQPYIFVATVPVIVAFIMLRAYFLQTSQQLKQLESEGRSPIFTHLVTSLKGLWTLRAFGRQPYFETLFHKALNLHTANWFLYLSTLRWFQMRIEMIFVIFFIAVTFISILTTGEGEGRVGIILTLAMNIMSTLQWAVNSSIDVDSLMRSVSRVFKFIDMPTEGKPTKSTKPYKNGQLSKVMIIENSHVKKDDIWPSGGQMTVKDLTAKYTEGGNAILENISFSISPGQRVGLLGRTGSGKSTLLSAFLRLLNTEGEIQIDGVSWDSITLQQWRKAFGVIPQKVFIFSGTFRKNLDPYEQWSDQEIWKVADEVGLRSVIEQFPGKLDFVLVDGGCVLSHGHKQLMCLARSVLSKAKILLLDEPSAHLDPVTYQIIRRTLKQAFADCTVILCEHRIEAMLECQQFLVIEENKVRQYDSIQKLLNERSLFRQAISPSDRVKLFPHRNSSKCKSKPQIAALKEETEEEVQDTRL
Compound,EC50 [1],Emax [2],EC50 [3],Emax [4]
"COc1cccc(CCNC(=O)[C@@H]2CC(=O)N(C)CC(=O)N(CCC3CCCCC3)CC(=O)N[C@H](Cc3ccccc3)COc3cccc(OC)c3C(=O)N2)c1 [Example 258, (3R,13S)-3-benzyl-7-(2-cyclohexylethyl)-16-methoxy-N-(3-methoxyphenethyl)-10-methyl-5,8,11,15-tetraoxo-2,3,4,5,6,7,8,9,10,11,12,13,14,15-tetradecahydrobenzo[p][1]oxa[4,7,10,14]tetraazacycloheptadecine-13-carboxamide]",–,–,424 nM,117%
"CC(C)C[C@H]1C(=O)N2CCCC[C@@H]2C(=O)N[C@H](Cc2ccccc2)COc2cnc3ccccc3c2C(=O)N[C@H](C(=O)NCCc2nc(C3CC3)no2)CC(=O)N1C [Example 127, (9S,13S,19aR,22R)-22-benzyl-N-(2-(3-cyclopropyl-1,2,4-oxadiazol-5-yl)ethyl)-13-isobutyl-12-methyl-7,11,14,20-tetraoxo-7,8,9,10,11,12,13,14,17,18,19,19a,20,21,22,23-hexadecahydro-16H-pyrido[2′,1′:6,7][1]oxa[4,7,10,14]tetraazacycloheptadecino[17,16-c]quinoline-9-carboxamide]",–,–,107 nM,311%
"COc1cccc(CCNC(=O)[C@@H]2CC(=O)N(C)[C@@H](CC(C)C)C(=O)N3CCN(c4ccccc4)C[C@@H]3C(=O)N[C@H](Cc3ccccc3)COc3ccc4nc(C)oc4c3C(=O)N2)c1 [Example 536, (8S,12S,18aR,21R)-21-benzyl-12-isobutyl-N-(3-methoxyphenethyl)-4,11-dimethyl-6,10,13,19-tetraoxo-17-phenyl-6,7,8,9,10,11,12,13,16,17,18,18a,19,20,21,22-hexadecahydro-15H-oxazolo[4′,5′:5,6]benzo[1,2-p]pyrazino[2,1-f][1]oxa[4,7,10,14]tetraazacycloheptadecine-8-carboxamide]",175 nM,358%,–,–
"CC(C)C[C@H]1C(=O)N2CCN(C3CC3)C[C@@H]2C(=O)N[C@H](Cc2ccccc2)COc2cnc3ccccc3c2C(=O)N[C@H](C(=O)NCCc2ccc3c(c2)OCO3)CC(=O)N1C [Example 393, (9S,13S,19aR,22R)-N-(2-(benzo[d][1,3]dioxol-5-yl)ethyl)-22-benzyl-18-cyclopropyl-13-isobutyl-12-methyl-7,11,14,20-tetraoxo-7,8,9,10,11,12,13,14,17,18,19,19a,20,21,22,23-hexadecahydro-16H-pyrazino[2′,11:6,7][1]oxa[4,7,10,14]tetraazacycloheptadecino[17,16-c]quinoline-9-carboxamide]",–,–,118 nM,314%

# More lines, main results first:
EC50 [1],Emax [2],Compound,EC50 [3],Emax [4]
316 nM,275%,"Cc1cc(CCNC(=O)[C@@H]2CC(=O)N(C)[C@@H](CC(C)C)C(=O)N3CCCC[C@@H]3C(=O)N[C@H](Cc3ccccc3)COc3cnc4c(F)cccc4c3C(=O)N2)on1 [Example 443, (9S,13S,19aR,22R)-22-benzyl-3-fluoro-13-isobutyl-12-methyl-N-(2-(3-methylisoxazol-5-yl)ethyl)-7,11,14,20-tetraoxo-7,8,9,10,11,12,13,14,17,18,19,19a,20,21,22,23-hexadecahydro-16H-pyrido[2′,1′:6,7][1]oxa[4,7,10,14]tetraazacycloheptadecino[17,16-c]quinoline-9-carboxamide]",–,–
874 nM,195%,"Cc1cc(CCNC(=O)[C@@H]2CC(=O)N(C)[C@@H](CC(C)C)C(=O)N(C)C3(CCCC3)C(=O)N[C@H](Cc3ccccc3)COc3cnc4ccccc4c3C(=O)N2)on1 [Example 708, (3′S,7′S,13′R)-13′-benzyl-7′-isobutyl-6′,9′-dimethyl-N-(2-(3-methylisoxazol-5-yl)ethyl)-1′,5′,8′,11′-tetraoxo-2′,3′,4′,5′,6′,7′,8′,9′,11′,12′,13′,14′-dodecahydro-1′H-spiro[cyclopentane-1,10′-[1]oxa[4,7,10,14]tetraazacycloheptadecino[17,16-c]quinoline]-3′-carboxamide]",–,–
